Results as given in publication PMC6941952, “A homogeneous bioluminescent immunoassay to probe cellular signaling pathway regulation” (Communications Biology, 2020).
Where “and” joins values, the source holds several entries; their conditions need not be identical. Equal values may be shown once.

Tested on: total IκBα
Experiment: NanoBiT cell-based immunoassay, total IκBα in MCF-7 cells
Design: species or system human
Conditions: for Total IkB Average / Average: background subtracted; for Raw data / Subtract background / Average: Figure 2d
Method: Prior to NanoBiT Cell-Based Immunoassay, 50,000 cells were seeded in 160 µl of complete growth media per well of a 96-well plate and incubated overnight. […] If necessary, the cell culture media were replaced with serum-free media after the cells were stably adherent on the plate and incubated overnight. To treat cells with activators or inhibitors, medium was changed to 30 µl of medium containing inhibitors. If activation of a specific pathway is needed, the cells were stimulated with 10 µl of medium containing activators. To lyse the cells, 10 µl of lysis buffer containing 0.1% digitonin diluted in 1X immunoassay buffer with protease and phosphatase inhibitors was added and the plates were mixed vigorously for 20 min. Then, 50 µl of an antibody mix containing two primary antibodies against the target protein and NanoBiT detecting antibodies (0.3 µl each per well), diluted in 1X immunoassay buffer was added to the lysates. The plates were incubated at 23 °C for 90 min, followed by the addition of 25 µl of Nano-Glo® reagent consisting of Nano-Glo® Luciferase Assay Substrate mixed with 1X immunoassay buffer. Luminescence was measured using a plate-reading luminometer.
Single dose or dose response inhibitor treatments were performed prior to activation of the pathways as follows. For IκBα, the cells were treated in 30 µl medium with IKK16 or MG132 for 60 min before the addition of 10 µl of DMEM containing appropriate concentration of TNFα. To measure phosphorylation of AKT or STAT3, the corresponding NanoBiT immunoassays were developed with MCF-7 or A431 cells, respectively, according the same scheme used to develop the IκBα assay using the primary antibodies for AKT and STAT3 described in the reagents section. […] Treatment with LY294002 was performed in 30 µl medium and cells were incubated for 60 min before the addition of 1 µM Insulin. To measure STAT3 phosphorylation, A431 cells were incubated overnight in DMEM medium without serum. […] After addition of the stimulators, the cells were incubated for additional times as follows. IκBα phosphorylation and degradation analyses required both time courses and single time points as described in figures. […] The NanoBiT immunoassay protocol was followed as described above.
All 96-well assay plates were read using a GloMax® 96 Microplate Luminometer from Promega. The instrument was set to 0.5 s integration time. In order to obtain net change of signal, the reagent background values (signal from the well containing all reagent except primary antibodies) were subtracted from the sample values. To plot and analyze the data, Microsoft Excel and GraphPad Prism® Software were used. IC50 values were determined by using a nonlinear regression fit to a sigmoidal dose response (variable slope).

[1] = Figure 3a and 3b, listed as TNF
[2] = No MG132, TNF 2 min, listed as TNF
[3] = No MG132, TNF 4 min, listed as TNF
[4] = No MG132, TNF 6 min, listed as TNF
[5] = No MG132, TNF 8 min, listed as TNF
[6] = No MG132, TNF 10 min, listed as TNF
[7] = No MG132, TNF 12 min, listed as TNF
[8] = No MG132, TNF 15 min, listed as TNF
[9] = No MG132, TNF 30 min, listed as TNF

For TNFα, the “Total IkB Average” value (Figure 3a and 3b) was 42170, the “Total IkB Raw data” value [1] was 63440 and 64850 and 64790 and the “Total IkB Subtract reagent background” value [1] was 42600 and 41250 and 42660. The Raw data (Cell # 3500, listed as TNF) was 18670 and 18820, the Subtract background (Cell # 3500, listed as TNF) was 4540 and 4140 and the Raw data (Cell # 7000, listed as TNF) was 18660 and 18670. The Subtract background (Cell # 7000, listed as TNF) was 4530 and 3990, the Raw data (Cell # 14000, listed as TNF) was 18430 and 19060 and the Subtract background (Cell # 14000, listed as TNF) was 4300 and 4380. The Raw data (Cell # 21000) was 19110, the Subtract background (Cell # 21000, listed as TNF) was 4980 and 4430 and the Raw data (Cell # 28000, listed as TNF) was 20250 and 19900. The Subtract background (Cell # 28000, listed as TNF) was 6120 and 5220, the Raw data (Cell # 35000, listed as TNF) was 20910 and 20760 and the Subtract background (Cell # 35000, listed as TNF) was 6780 and 6080. For the same substance, the Raw data (Cell # 42000, listed as TNF) was 21720 and 21040, the Subtract background (Cell # 42000, listed as TNF) was 7590 and 6360 and the Raw data (Cell # 49000, listed as TNF) was 22850 and 23430. For the same substance, the Subtract background (Cell # 49000, listed as TNF) was 8720 and 8750, the Raw data (Cell # 56000, listed as TNF) was 23160 and 23600 and the Subtract background (Cell # 56000, listed as TNF) was 9030 and 8920. For the same substance, the Raw data (Cell # 63000, listed as TNF) was 26970 and 26330, the Subtract background (Cell # 63000, listed as TNF) was 12840 and 11650 and the Average (Cell # 3500) was 4340. It also gave an Average (Cell # 7000) of 4260, an Average (Cell # 14000) of 4340 and an Average (Cell # 21000) of 4705. The Average (Cell # 28000) was 5670, the Average (Cell # 35000) was 6430 and the Average (Cell # 42000) was 6975. It also gave an Average (Cell # 49000) of 8735, an Average (Cell # 56000) of 8975 and an Average (Cell # 63000) of 12245. The “Total IkB Average” value (No MG132, TNF 2 min) was 63885, the “Total IkB Raw data” value [2] was 78720 and 79300 and 81370 and 83380 and the “Total IkB Subtract reagent background” value [2] was 61913 and 62493 and 64563 and 66573. The “Total IkB Average” value (No MG132, TNF 4 min) was 62935, the “Total IkB Raw data” value [3] was 77560 and 79450 and 81310 and 80650 and the “Total IkB Subtract reagent background” value [3] was 60753 and 62643 and 64503 and 63843. For the same substance, the “Total IkB Average” value (No MG132, TNF 6 min) was 62480, the “Total IkB Raw data” value [4] was 79920 and 79580 and 79430 and 78220 and the “Total IkB Subtract reagent background” value [4] was 63113 and 62773 and 62623 and 61413. The “Total IkB Average” value (No MG132, TNF 8 min) was 58228, the “Total IkB Raw data” value [5] was 76120 and 76190 and 73510 and 74320 and the “Total IkB Subtract reagent background” value [5] was 59313 and 59383 and 56703 and 57513. For the same substance, the “Total IkB Average” value (No MG132, TNF 10 min) was 52595, the “Total IkB Raw data” value [6] was 72590 and 72810 and 65780 and 66430 and the “Total IkB Subtract reagent background” value [6] was 55783 and 56003 and 48973 and 49623. For the same substance, the “Total IkB Average” value (No MG132, TNF 12 min) was 41533, the “Total IkB Raw data” value [7] was 62400 and 61420 and 53610 and 55930 and the “Total IkB Subtract reagent background” value [7] was 45593 and 44613 and 36803 and 39123. For the same substance, the “Total IkB Average” value (No MG132, TNF 15 min) was 29070, the “Total IkB Raw data” value [8] was 51070 and 48840 and 41650 and 41950 and the “Total IkB Subtract reagent background” value [8] was 34263 and 32033 and 24843 and 25143. For the same substance, the “Total IkB Average” value (No MG132, TNF 30 min) was 9615, the “Total IkB Raw data” value [9] was 28150 and 26460 and 25400 and 25680 and the “Total IkB Subtract reagent background” value [9] was 11343 and 9653 and 8593 and 8873.
